Experimental data from patent US20120010075A1 (priority 2009, published 2012).
Read-outs that look alike come from different tables or passages of the source.

Experiments:
[1] = tested on: Leptosphaeria nodorum (LEPTNO); assay: In vitro fungitoxicity of hydrazones with and without copper towards Leptosphaeria nodorum (Example 26); type: cell-based; conditions: 72 h at 25° C.; for inhibition of growth at 0.05 µg/mL: Parastagonospora nodorum, 72 h, copper-minus medium, read-out: LEPTNO % Inhn. Minus Copper Observed
[2] = tested on: Leptosphaeria nodorum (LEPTNO); assay: Isolated metal-hydrazone complexes versus parent hydrazones, in vitro, Leptosphaeria nodorum (Example 31, Table 7); type: cell-based; conditions: Parastagonospora nodorum; 0.1 μg/mL; copper-minus medium; 72 h
Phytophthora infestans = type: in vivo, Phytophthora infestans on tomato; conditions: applied 24 h before inoculation, assessed 7 days after inoculation
Phytophthora capsici = assay: In vitro fungitoxicity of hydrazones with and without copper towards Phytophthora capsici (Example 28, Table 3); type: cell-based; conditions: 0.050 μg/mL, 48 h; for % Inhn Plus copper Observed: copper-plus AS medium (CuCl2, 50 μM); for inhibition of growth at 0.05 µg/mL: Phytophthora capsici, copper-minus AS medium, read-out: % Inhn Minus copper Observed
[3] = tested on: Septoria tritici isolate USA-184; assay: In vitro fungitoxicity of hydrazones with and without copper towards Septoria tritici (Example 30, Table 5); type: cell-based; conditions: Zymoseptoria tritici, 0.05 μg/mL
Ustilago maydis = assay: In vitro fungitoxicity of hydrazones with and without copper towards Ustilago maydis (Example 29, Table 4); type: cell-based; conditions: 1 μg/mL, 48 h; for % Inhn. Plus copper Observed: copper-plus medium (CuCl2, 10 μM); for inhibition of growth at 1 µg/mL: Mycosarcoma maydis, copper-minus medium, read-out: % Inhn. Minus copper Observed
[4] = test compound Concn. 0.05 μg/mL
[5] = copper-plus medium (CuCl2 10 μM), test compound Concn. 0.05 μg/mL
[6] = hydrazone 50 ppm with 50 μM CuCl2.2H2O, tomato late blight
[7] = compound 0.05 μg/mL, copper-plus medium (CuCl2.2H2O)
[8] = hydrazone 50 ppm + 50 μM CuCl2.2H2O, tomato
[9] = Colby formula, CuCl2, read-out: % Inhibition Plus copper Predicted
[10] = copper-minus medium, 90 h, read-out: % Inhibition Minus copper Observed
[11] = copper-plus medium CuCl2, 90 h, read-out: % Inhibition Plus copper Observed

Row | Structure (SMILES) | inhibition of growth at 0.05 µg/mL [1, 4] [%] | LEPTNO % Inhn. Plus Copper Observed [1, 5] [%] | inhibition at 0.1 µg/mL [2] [%] | TLB % Control (Phytophthora infestans; [6]) [%] | melting point [°C] | inhibition of growth at 0.05 µg/mL ([1]; compound 0.05 μg/mL) [%] | LEPTNO % Inhn. Plus Copper Observed [1, 7] [%] | TLB % Control (Phytophthora infestans; [8]) [%] | % Inhn Plus copper Observed (Phytophthora capsici) [%] | inhibition of growth at 0.05 µg/mL (Phytophthora capsici) [%] | inhibition at 0.05 µg/mL [3, 9] [%] | inhibition at 0.05 µg/mL [3, 10] [%] | inhibition at 0.05 µg/mL [3, 11] [%] | % Inhn. Plus copper Observed (Ustilago maydis) [%] | inhibition of growth at 1 µg/mL (Ustilago maydis) [%]
1 | O=C(N/N=C/c1ccc(Cl)cc1O)c1ccc(Cl)cc1 [Example 392] | 15.8 | 97.9 | 22.8 | 46.0 | – | – | – | – | – | – | – | – | – | – | –
2 | COc1cccc(/C(C)=N/NC(=O)c2cccc(Cl)c2)c1O [Example 304] | 0 | 97.9 | 13.3 | 77.0 | 146 to 148 | – | – | – | – | – | – | – | – | – | –
3 | O=C(N/N=C/c1ccc(Cl)c(Cl)c1O)c1ccccc1 [Example 238] | – | – | 20 | – | 249 to 252 | 0.5 | 97.6 | 92.5 | – | – | – | – | – | – | –
4 | O=C(N/N=C/c1cc(Cl)cc(Br)c1O)c1ccccc1O [Example 195] | – | – | 21.7 | – | – | 19.2 | 97.9 | 89.5 | – | – | – | – | – | – | –
5 | O=C(N/N=C/c1cc(Cl)cc(C(F)(F)F)c1O)c1ccc(Cl)cc1 [Example 381] | 31.8 | 98.6 | 43.9 | 100.0 | 232 to 234 | – | – | – | – | – | – | – | – | – | –
6 | O=C(N/N=C/c1cc(C(F)(F)F)ccc1O)c1ccc(Cl)cc1 [Example 440] | 2.9 | 100.0 | 23.8 | 98.0 | 252 to 254 | – | – | – | – | – | – | – | – | – | –
7 | C/C(=N\NC(=O)c1ccc(Cl)cc1)c1cc(Cl)cc(Cl)c1O [Example 136] | – | – | 34.7 | – | 260 to 262 | 9.7 | 98.6 | 95.0 | – | – | – | – | – | – | –
8 | Cc1ccc(C(=O)N/N=C/c2cc(Br)cc(F)c2O)cc1 [Example 411] | 8.2 | 97.9 | 32.1 | 85.0 | 228 to 229 | – | – | – | – | – | – | – | – | – | –
9 | COc1cccc(/C(C)=N/NC(=O)c2cccc(C)c2)c1O [Example 301] | 0 | 97.9 | 3.5 | 82.0 | 121 to 123 | – | – | – | – | – | – | – | – | – | –
10 | O=C(N/N=C/c1cccc(Cl)c1O)c1ccccc1 [Example 231] | – | – | 10.7 | – | 188 to 189 | 0 | 98.5 | 81.3 | – | – | – | – | – | – | –
11 | COc1cccc(/C(C)=N/NC(=O)c2ccccc2Cl)c1O [Example 303] | 0 | 98.0 | 10.6 | 45.0 | 233 to 234 | – | – | – | – | – | – | – | – | – | –
12 | O=C(N/N=C/c1c(C(F)(F)F)ccc(Cl)c1O)c1ccc(Cl)cc1 [Example 452] | 12.9 | 100.0 | 19.3 | 100.0 | 236 to 238 | – | – | – | – | – | – | – | – | – | –
13 | O=C(N/N=C/c1cc(Cl)cc(Br)c1O)c1ccc(Cl)cc1 [Example 159] | – | – | 27.4 | – | – | 11.4 | 98.5 | 91.9 | – | – | – | – | – | – | –
14 | C/C(=N\NC(=O)c1ccccc1Cl)c1cc(Cl)cc(Cl)c1O [Example 67] | – | – | 4.2 | – | – | 2.6 | 91.8 | 75.0 | – | – | – | – | – | – | –
15 | O=C(N/N=C/c1cc(Cl)cc(Cl)c1O)c1ccc(Cl)cc1 [Example 68] | – | – | 7.1 | – | – | 15.8 | 97.0 | 75.9 | – | – | – | – | – | – | –
16 | O=C(N/N=C/c1cc(Cl)ccc1O)c1ccc(Cl)cc1 [Example 172] | – | – | 28.7 | – | – | 13.2 | 97.9 | 27.1 | – | – | – | – | – | – | –
17 | O=C(N/N=C/c1ccc(Cl)cc1O)c1ccccc1 [Example 233] | – | – | 8.4 | – | – | 5.6 | 98.1 | 88.1 | – | – | – | – | – | – | –
18 | C/C(=N\NC(=O)c1ccccc1)c1ccccc1O [Example 230] | – | – | – | – | 185 to 187 | 9 | 98.3 | 65.0 | 93.6 | 5.8 | 43.6 | 43.6 | 96.7 | 94.4 | 11.9
19 | O=C(N/N=C/c1cc(Cl)cc(C(F)(F)F)c1O)c1ccccc1O [Example 384] | 28.6 | 95.8 | – | 100.0 | 258 to 260 | – | – | – | 71.1 | 0 | 57.5 | 57.5 | 97 | 96.6 | 13.6
20 | O=C(N/N=C/c1cc(Cl)cc(Br)c1O)c1ccccc1 [Example 151] | – | – | 30.9 | – | – | 11.8 | 97.6 | 83.0 | – | – | – | – | – | – | –
21 | O=C(N/N=C/c1c(O)cccc1Cl)c1ccc([N+](=O)[O-])cc1 [Example 405] | 2.8 | 96.2 | – | 98.0 | > 300 | – | – | – | 85.9 | 0.6 | 18.8 | 18.8 | 89.9 | 90.0 | 9.6
22 | C/C(=N\NC(=O)Cc1ccccc1)c1cc(Cl)cc(Cl)c1O [Example 140] | – | – | – | – | 199 to 204 | 6.7 | 96.7 | 81.0 | 91.4 | 0 | 0 | 0 | 96.6 | 95.7 | 0
23 | O=C(N/N=C/c1cc(C(F)(F)F)cc(Cl)c1O)c1ccccc1 [Example 275] | – | – | – | – | 216 to 222 | 0 | 98.4 | 79.7 | 91.2 | 0 | 16.2 | 16.2 | 93.5 | 92.2 | 0
